# Experimental data reported in patent US10000469B2, “Heat shock protein 70 (hsp-70) receptor ligands” (Duke University, priority 2014, dated 2018).
# Key:
# [1] = system: PC12 cell line expressing httQ74-GFP; assay: Aggregation assay, cell culture model of Huntington's disease; format: cell-based, rat; conditions: compared to untreated controls
# Description: Aggregation Assay: The PC12 rat neuronal cell line, which expresses Huntingtin exon 1 containing 74 glutamine repeats is fused to GFP and under the control of a doxycycline promoter was used [Wyttenbach et al. (2001). Polyglutamine expansions cause decreased CRE-mediated transcription and early gene expression changes prior to cell death in an inducible cell model of Huntington's disease. Human molecular genetics 10, 1829-1845]. Cells were treated with HS-72 for 18 hours prior to a doxycycline addition for 48 hours. The soluble and pellet fraction were then separated by centrifugation at 14,000 rpm for 15 minutes and both fractions were assayed for httQ-GFP by solubilizing with SDS followed by western blotting with antibodies against GFP.
# Hsp70 = biological target: T1, Hsp70 (Sus scrofa, UniProt P34930); assay: Endogenous Hsp70 elution from ATP resin, pig bladder lysate; format: binding; conditions: few non-specific eluted proteins
# T1 construct: from tissue; host or cells: pig bladder
# T1 sequence (P34930 whole entry): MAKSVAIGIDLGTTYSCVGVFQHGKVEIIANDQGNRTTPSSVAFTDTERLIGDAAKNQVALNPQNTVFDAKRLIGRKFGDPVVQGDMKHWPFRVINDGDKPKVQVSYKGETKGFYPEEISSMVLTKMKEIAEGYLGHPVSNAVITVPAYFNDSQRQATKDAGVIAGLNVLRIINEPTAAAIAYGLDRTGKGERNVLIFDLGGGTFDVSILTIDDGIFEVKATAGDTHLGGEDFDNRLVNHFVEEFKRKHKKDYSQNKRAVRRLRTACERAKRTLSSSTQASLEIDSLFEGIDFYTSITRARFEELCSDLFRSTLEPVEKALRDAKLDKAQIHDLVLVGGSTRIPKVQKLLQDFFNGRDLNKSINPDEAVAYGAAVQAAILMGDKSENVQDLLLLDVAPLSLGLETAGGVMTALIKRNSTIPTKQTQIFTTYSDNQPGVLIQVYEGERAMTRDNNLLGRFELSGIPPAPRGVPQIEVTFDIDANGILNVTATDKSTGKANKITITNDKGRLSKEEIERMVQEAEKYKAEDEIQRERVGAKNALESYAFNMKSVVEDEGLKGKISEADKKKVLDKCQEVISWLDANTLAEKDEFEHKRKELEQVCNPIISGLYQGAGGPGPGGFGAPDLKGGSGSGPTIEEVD
# Description: Endogenous Hsp70 elution: Pig bladder tissue was used for eluting endogenous Hsp70 from the γ-phosphate ATP sepharose resin. Tissue was homogenized in liquid nitrogen and stored at −80° C. until further use. Tissue mass was measured (g) and then 2.5× volume (mL) of tissue lysis buffer (50 mM HEPES, 60 mM MgCl2, 60 mM KCl, 1 mM DTT) was added and homogenized on a laboratory blender. A total of 25 grams of homogenized tissue was typically used for each experiment. Subsequent to lysis, the tissue was centrifuged at 35,000 RPM in a Beckman Type 45 Ti rotor (Brea, Calif.) for 45 minutes at 4° C., and then filtered over silica wool. The filtered supernatant was then added to the γ-phosphate ATP sepharose resin and washed as previously described in the FLECS screen. Compounds were used to elute Hsp70 and the elutions were then separated by SDS-PAGE and analyzed by Western blot or the gels were visualized by silver stain.
# Hsc70 = biological target: T2, Hsc70 (Homo sapiens, UniProt P11142); assay: Thermofluor assay, purified Hsc70; format: binding; conditions: ±ATP
# T2 construct: His tag (cleaved yes); made in house
# T2 sequence (P11142 whole entry): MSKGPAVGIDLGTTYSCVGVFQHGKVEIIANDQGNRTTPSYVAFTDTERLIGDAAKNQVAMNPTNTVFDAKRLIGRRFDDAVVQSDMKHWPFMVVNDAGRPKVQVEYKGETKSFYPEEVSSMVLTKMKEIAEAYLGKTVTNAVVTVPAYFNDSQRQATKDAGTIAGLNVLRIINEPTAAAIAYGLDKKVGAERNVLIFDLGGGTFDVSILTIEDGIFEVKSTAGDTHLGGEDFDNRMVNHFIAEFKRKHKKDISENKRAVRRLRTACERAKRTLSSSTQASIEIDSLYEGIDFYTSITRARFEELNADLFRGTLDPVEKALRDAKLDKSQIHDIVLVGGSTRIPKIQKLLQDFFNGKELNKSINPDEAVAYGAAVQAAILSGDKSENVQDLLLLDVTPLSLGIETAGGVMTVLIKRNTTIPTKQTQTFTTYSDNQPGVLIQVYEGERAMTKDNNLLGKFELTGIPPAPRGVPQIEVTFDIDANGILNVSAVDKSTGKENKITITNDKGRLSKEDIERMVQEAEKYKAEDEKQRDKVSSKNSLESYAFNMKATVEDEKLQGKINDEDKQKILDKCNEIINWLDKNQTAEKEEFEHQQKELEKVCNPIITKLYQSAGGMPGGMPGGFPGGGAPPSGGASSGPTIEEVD
# Description: (§1) Protein Purification: Plasmids were provided for human HSPA1A, HSPA8, and HSPA1A C306D. Plasmids were transformed in Rosetta competent cells and single colonies were picked from streaked LB/ampicillin/chloramphenicol plates. Cultures were grown at 37° C. for 4-6 hours, were cooled to 15° C. and expression was induced overnight with 200 uM isopropyl 1-thio-β-D-galactopyranoside. Cells were pelleted and resuspended in Ni-lysis buffer (50 mM Na2HPO4, 300 mM NaCl, 10 mM Imidazole, 0.05% Tween-20) supplemented with Complete Mini protease inhibitor tablets (Roche, Mannheim, Germany) and […], and then sonicated. The cells were again pelleted and the supernatant was incubated with complete His-Tag purification resin (Roche, Mannheim, Germany) for 5 hours at 4° C. The resin was washed with Ni-wash buffer (50 mM Na2HPO4, 300 mM NaCl, 20 mM Imidazole, 0.05% Tween-20) and eluted with Ni-elution buffer (50 mM Na2HPO4, 300 mM NaCl, 250 mM Imidazole, 0.05% Tween-20). […]
# (§2) Thermofluor Assay: SYPRO orange (Molecular Probes, Eugene, Oreg.) was diluted 1:1000 in 25 mM HEPES, 5 mM MgCl2, 10 mM KCl (pH 7.5) and purified Hsp70i, Hsc70, Hsp70i C306, or Hsp90, was then added to a final dilution of 0.04 mg/ml. […] A melt curve protocol (25° C. to 90° C., increasing 0.5° C. and a plate reading every 30 seconds) was run on a CFX384 Touch™ Real-Time PCR Detection System (BioRad). […]
# Hsp70i = Hsp70i (Homo sapiens, UniProt P0DMV8); assay: Thermofluor assay, purified Hsp70i; format: binding; set-up: Full length Hsp70 (black arrow) and tryptic fragments (blue arrows); His tag (cleaved yes); made in house; conditions: for decrease of ATP bound Hsp70i Tm: in presence of ATP; for decrease of the Tm of Hsp70i: no nucleotide
# Sequence of Hsp70i (P0DMV8 whole entry, the tested form may be a part): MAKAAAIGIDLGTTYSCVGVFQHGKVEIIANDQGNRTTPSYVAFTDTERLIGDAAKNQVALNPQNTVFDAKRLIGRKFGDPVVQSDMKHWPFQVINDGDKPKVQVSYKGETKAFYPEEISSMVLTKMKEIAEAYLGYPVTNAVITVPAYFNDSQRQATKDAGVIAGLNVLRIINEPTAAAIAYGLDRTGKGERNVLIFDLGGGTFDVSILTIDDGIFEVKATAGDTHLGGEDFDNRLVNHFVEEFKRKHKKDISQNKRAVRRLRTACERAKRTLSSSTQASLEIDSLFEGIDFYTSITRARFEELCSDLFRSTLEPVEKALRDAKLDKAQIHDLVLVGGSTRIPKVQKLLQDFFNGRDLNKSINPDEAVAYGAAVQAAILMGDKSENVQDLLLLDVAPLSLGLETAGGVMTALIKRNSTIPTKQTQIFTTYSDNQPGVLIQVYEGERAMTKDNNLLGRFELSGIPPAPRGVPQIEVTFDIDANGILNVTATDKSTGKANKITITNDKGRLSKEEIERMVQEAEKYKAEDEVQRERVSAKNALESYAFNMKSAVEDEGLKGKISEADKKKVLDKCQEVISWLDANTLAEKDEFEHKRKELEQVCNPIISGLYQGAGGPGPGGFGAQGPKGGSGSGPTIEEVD
# Description: Protein Purification: Plasmids were provided for human HSPA1A, HSPA8, and HSPA1A C306D. Plasmids were transformed in Rosetta competent cells and single colonies were picked from streaked LB/ampicillin/chloramphenicol plates. Cultures were grown at 37° C. for 4-6 hours, were cooled to 15° C. and expression was induced overnight with 200 uM isopropyl 1-thio-β-D-galactopyranoside. Cells were pelleted and resuspended in Ni-lysis buffer (50 mM Na2HPO4, 300 mM NaCl, 10 mM Imidazole, 0.05% Tween-20) supplemented with Complete Mini protease inhibitor tablets (Roche, Mannheim, Germany) and […], and then sonicated. The cells were again pelleted and the supernatant was incubated with complete His-Tag purification resin (Roche, Mannheim, Germany) for 5 hours at 4° C. The resin was washed with Ni-wash buffer (50 mM Na2HPO4, 300 mM NaCl, 20 mM Imidazole, 0.05% Tween-20) and eluted with Ni-elution buffer (50 mM Na2HPO4, 300 mM NaCl, 250 mM Imidazole, 0.05% Tween-20). The elution was then incubated with tobacco etch virus protease overnight at 4° C. The following day the elution was incubated with the γ-phosphate ATP sepharose resin for 30 minutes at 4° C. Next the resin was washed with ATP-wash buffer (50 mMTris-HCl, 60 mM MgCl2, 60 mM KCl, 10 mM Citrate) supplemented with 1 mM DTT and then ATP-wash buffer supplemented with 2 mM ATP was added to the resin to elute the protein. The final elutions were concentrated in Amicon Ultra-15 Centrifugal Filter Units (EMD Millipore, Billerica, Mass.) and buffer exchanged into 25 mM HEPES, 5 mM MgCl2, 10 mM KCl (pH 7.5) and stored at −80° C. until use.
# Thermofluor Assay: SYPRO orange (Molecular Probes, Eugene, Oreg.) was diluted 1:1000 in 25 mM HEPES, 5 mM MgCl2, 10 mM KCl (pH 7.5) and purified Hsp70i, Hsc70, Hsp70i C306, or Hsp90, was then added to a final dilution of 0.04 mg/ml. Where indicated 0.001% or 0.01% Triton X-100 (Sigma) was also added. The indicated compound or DMSO was then added at the specified concentration and each sample was added as 5 replicates to a 384 well plate (BioRad, Hercules, Calif.). A melt curve protocol (25° C. to 90° C., increasing 0.5° C. and a plate reading every 30 seconds) was run on a CFX384 Touch™ Real-Time PCR Detection System (BioRad). To determine the midpoint of the protein unfolding transition or Tm, GraphPad Prisim4 (La Jolla, Calif.) was used to normalize the melt curve and to calculate the first derivate of the melt curve, with the steepest point of the slope being the Tm.
# Hsp70i C306D mutant = biological target: T3, Hsp70i C306D mutant (Homo sapiens, UniProt P0DMV8, C306D); assay: Thermofluor assay, Hsp70i C306D mutant; format: binding; conditions: ±ATP
# T3 construct: His tag (cleaved yes); made in house
# T3 sequence (P0DMV8 whole entry C306D): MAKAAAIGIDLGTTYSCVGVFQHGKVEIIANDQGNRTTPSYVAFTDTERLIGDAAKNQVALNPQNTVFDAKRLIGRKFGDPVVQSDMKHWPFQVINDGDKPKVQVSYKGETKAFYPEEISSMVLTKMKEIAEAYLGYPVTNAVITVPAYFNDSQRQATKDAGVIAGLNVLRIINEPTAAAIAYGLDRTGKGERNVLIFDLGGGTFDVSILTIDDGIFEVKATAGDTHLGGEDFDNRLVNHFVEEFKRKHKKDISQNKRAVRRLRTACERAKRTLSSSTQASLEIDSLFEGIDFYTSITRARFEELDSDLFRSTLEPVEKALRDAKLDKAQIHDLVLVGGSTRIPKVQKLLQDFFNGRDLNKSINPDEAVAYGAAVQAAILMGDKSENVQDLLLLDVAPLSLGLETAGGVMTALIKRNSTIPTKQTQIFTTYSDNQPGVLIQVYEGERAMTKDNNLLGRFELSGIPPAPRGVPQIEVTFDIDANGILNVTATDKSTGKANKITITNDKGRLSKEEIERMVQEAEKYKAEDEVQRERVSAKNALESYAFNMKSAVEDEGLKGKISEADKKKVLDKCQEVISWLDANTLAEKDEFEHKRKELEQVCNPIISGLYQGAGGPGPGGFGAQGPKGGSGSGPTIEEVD
# Description: as §1, §2
# caspase-3/7 = assay: Caspase 3/7 assay in cancer cells; format: cell-based
# Description: Caspase 3/7 Assay: The Amplite™ Fluorimetric Caspase3/7 assay kit (AAT Bioquest, Sunnyvale, Calif.) was used per the manufacturer's instructions. Briefly, a fluorometric indicator, Ac-DEVD-AMC, was used to determine caspase activity. […] Cells were seeded at 60,000 cells/well in a 96 well plate and treated with compound for the indicated period of time. Diluted caspase 3/7 assay solution was added to each well and incubated at room temperature for 2 hours protected from light, upon which time fluorescence was measured on the Victor X2 plate reader (Perkin Elmer, Waltham, Mass.).
smiles,measurement,setting,value
"CCCn1c(NC(=O)[C@H]2CCCN(c3cnccn3)C2)nc2ccccc21 [HS-72, (S)—N-(1-propyl-1H-benzo[d]imidazol-2-yl)-1-(pyrazin-2-yl)piperidine-3-carboxamide]",increase of HttQ-GFP in the insoluble associated pellet fraction,[1],50%
same,elution of Hsp70 from ATP resin,Hsp70,elutes Hsp70
same,effect on Tm of Hsc70,Hsc70,does not change
same,decrease of ATP bound Hsp70i Tm,Hsp70i; 10 uM,0.5 °C
same,decrease of the Tm of Hsp70i,Hsp70i; 10 uM,0.1 °C
same,decrease of ATP bound Hsp70i Tm,Hsp70i; 100 uM,1 °C
same,decrease of the Tm of Hsp70i,Hsp70i; 100 uM,0.5 °C
same,Tm of Hsp70 with compound alone vs. compound plus detergent,"Hsp70i; 100 uM, 0.001% or 0.01% Triton",no difference
same,effect on Hsp70i Tm in combination with PES,Hsp70i; absence or presence of ATP,no synergistic or additive effect
same,effect on Hsp70i Tm in combination with VER,Hsp70i; absence or presence of ATP,no observed synergistic or additive effect
same,effect on Tm of Hsp70i,Hsp70i; compound alone,decreased in a dose dependent manner
same,effect on Tm of ADP Hsp70i,Hsp70i; in presence of ADP,does not change
same,effect on Tm of the Hsp70i C306D mutant,Hsp70i C306D mutant,does not change
same,caspase activation,"caspase-3/7; 6 hours and 24 hours, dose dependent",reproducible across several cancer cell lines
same,caspase activation,caspase-3/7; various cancer cells,inducing caspase activation in a dose dependent manner
